Measurements: US20260297070A1, “CYCLIC [COMPOUND LEFT OUT] WRN INHIBITORS” (Nimbus Wadjet, Inc., priority 2023, published 2026)

What follows are compounds tested against T1, human Werner helicase (WRN-BV08, Uniprot Q14191, amino acids 517-1235 with L1074F point mutation) (Homo sapiens, UniProt Q14191, L1074F) (assay: WRN (BV08) ADP-Glo Assay). Conditions: 0.15 nM WRN, 5 μM ATP, 0.1 nM DNA duplex, 15 min preincubation, 60 min at 25° C., pH 7.5, 1% DMSO; read-out: ADP-Glo_hWRN_IC50.
T1 construct: Uniprot Q14191, amino acids 517-1235 with L1074F point mutation; TEV-cleavable 8×His (C, cleaved yes); made in house; host or cells: Sf9 insect cells (baculovirus)
Assay type: biochemical
Procedure, shortened: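 Untagged WRN (Sf9-expressed, TEV-cleaved) at 0.15 nM was preincubated 15 min at 25 °C with compound, then reacted 60 min at 25 °C with 5 μM ATP and 0.1 nM DNA duplex in Bicine pH 7.5, 1 mM MgCl2. ADP-Glo luminescence gave % inhibition; IC50 by four-parameter fit.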

T1 sequence (Q14191 with tags, fused parts or gaps L1074F limits assumed): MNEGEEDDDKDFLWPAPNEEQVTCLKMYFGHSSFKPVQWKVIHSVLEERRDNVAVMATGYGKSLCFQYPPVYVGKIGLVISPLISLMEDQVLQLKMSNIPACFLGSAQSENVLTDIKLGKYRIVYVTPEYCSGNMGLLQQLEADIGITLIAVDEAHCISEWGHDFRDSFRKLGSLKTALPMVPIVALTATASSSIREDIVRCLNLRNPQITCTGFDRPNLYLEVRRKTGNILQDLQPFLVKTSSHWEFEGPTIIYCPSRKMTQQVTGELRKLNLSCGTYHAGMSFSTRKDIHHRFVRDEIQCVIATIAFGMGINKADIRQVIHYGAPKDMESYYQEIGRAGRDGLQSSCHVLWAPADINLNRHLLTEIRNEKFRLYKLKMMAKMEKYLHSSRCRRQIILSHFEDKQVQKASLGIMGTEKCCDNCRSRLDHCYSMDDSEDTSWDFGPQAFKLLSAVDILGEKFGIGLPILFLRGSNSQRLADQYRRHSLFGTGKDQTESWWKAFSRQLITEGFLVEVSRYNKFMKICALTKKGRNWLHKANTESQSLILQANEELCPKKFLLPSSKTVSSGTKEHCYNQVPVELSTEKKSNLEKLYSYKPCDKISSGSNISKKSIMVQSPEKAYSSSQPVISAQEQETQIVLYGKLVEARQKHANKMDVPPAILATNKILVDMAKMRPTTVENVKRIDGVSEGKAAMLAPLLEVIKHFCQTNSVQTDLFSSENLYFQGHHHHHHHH

IC50	SMILES
0.5 to 5 µM	O=C(Cc1ccc(-c2ccc(F)cc2)cc1F)N(Cc1ccncc1)C1C=CS(=O)(=O)C1 (stereo not shown) [I-115, 2-{3,4′-difluoro-[1,1′-biphenyl]-4-yl}-N-(1,1-dioxo-2,3-dihydro-1lambda6-thiophen-3-yl)-N-[(pyridin-4-yl)methyl]acetamide]
0.5 to 5 µM	O=C(c1ccc(CN(C(=O)Cc2ccc(-c3ccc(F)c(F)c3)cc2F)C2C=CS(=O)(=O)C2)cc1)N1CCCCC1 (stereo not shown) [I-796, N-(1,1-dioxo-2,3-dihydro-1lambda6-thiophen-3-yl)-N-{[4-(piperidine-1-carbonyl)phenyl]methyl}-2-{3,3′,4′-trifluoro-[1,1′-biphenyl]-4-yl}acetamide]
0.5 to 5 µM	COc1cc(CN(C(=O)C(OCC2CN(S(C)(=O)=O)C2)c2ccc(-c3ccc(F)c(F)c3)cc2F)[C@@H]2C=CS(=O)(=O)C2)ccn1 (stereo partly drawn) [I-810, N-[(3R)-1,1-dioxo-2,3-dihydro-1lambda6-thiophen-3-yl]-2-[(1-methanesulfonylazetidin-3-yl)methoxy]-N-[(2-methoxypyridin-4-yl)methyl]-2-{3,3′,4′-trifluoro-[1,1′-biphenyl]-4-yl}acetamide]
> 50 µM	O=C(Cn1ccc(-c2ccccc2)n1)N(Cc1ccncc1)C1C=CS(=O)(=O)C1 (stereo not shown) [I-450, N-(1,1-dioxo-2,3-dihydro-1lambda6-thiophen-3-yl)-2-(3-phenyl-1H-pyrazol-1-yl)-N-[(pyridin-4-yl)methyl]acetamide]
> 50 µM	O=C(C1CCc2ccc(Br)cc21)N(Cc1ccncc1)C1C=CS(=O)(=O)C1 (stereo not shown) [I-658, 6-bromo-N-(1,1-dioxo-2,3-dihydro-1lambda6-thiophen-3-yl)-N-[(pyridin-4-yl)methyl]-2,3-dihydro-1H-indene-1-carboxamide]
10 to 50 µM	O=C(CCc1c[nH]c2cc(Br)ccc12)N(Cc1ccncc1)C1C=CS(=O)(=O)C1 (stereo not shown) [I-304, 3-(6-bromo-1H-indol-3-yl)-N-(1,1-dioxo-2,3-dihydro-1lambda6-thiophen-3-yl)-N-[(pyridin-4-yl)methyl]propanamide]
< 0.5 µM	O=C(Cn1cc(-c2ccc(F)c(F)c2)cn1)N(Cc1ccnc(N2CCC2)c1)C1C=CS(=O)(=O)C1 (stereo not shown) [I-760, N-{[2-(azetidin-1-yl)pyridin-4-yl]methyl}-2-[4-(3,4-difluorophenyl)-1H-pyrazol-1-yl]-N-(1,1-dioxo-2,3-dihydro-1lambda6-thiophen-3-yl)acetamide]
10 to 50 µM	CN(C)C(=O)OC(C(=O)N(Cc1ccnc(C(C)(C)O)c1)[C@@H]1C=CS(=O)(=O)C1)c1ccc(-c2ccc(F)c(F)c2)cc1F (single isomer, unassigned) [I-636]
< 0.5 µM	CC(C)(O)c1cc(CN(C(=O)Cc2cc(-c3ccc(F)c(F)c3)sn2)[C@@H]2C=CS(=O)(=O)C2)ccn1 [I-825, 2-[5-(3,4-difluorophenyl)-1,2-thiazol-3-yl]-N-[(3R)-1,1-dioxo-2,3-dihydro-1lambda6-thiophen-3-yl]-N-{[2-(2-hydroxypropan-2-yl)pyridin-4-yl]methyl}acetamide]
> 50 µM	O=C(N(Cc1ccncc1)C1C=CS(=O)(=O)C1)C12CC(c3cccc(C(F)(F)F)c3)(C1)C2F (stereo not shown) [I-586, N-(1,1-dioxo-2,3-dihydro-1lambda6-thiophen-3-yl)-2-fluoro-N-[(pyridin-4-yl)methyl]-3-[3-(trifluoromethyl)phenyl]bicyclo[1.1.1]pentane-1-carboxamide]
0.5 to 5 µM	COc1cc(CN(C(=O)Cc2ccc(-n3cccc3C)cc2F)C2C=CS(=O)(=O)C2)nc(OC)c1 (stereo not shown) [I-202, N-[(4,6-dimethoxypyridin-2-yl)methyl]-N-(1,1-dioxo-2,3-dihydro-1lambda6-thiophen-3-yl)-2-[2-fluoro-4-(2-methyl-1H-pyrrol-1-yl)phenyl]acetamide]
0.5 to 5 µM	O=C(Cn1cc(-c2ccccc2)cn1)N(Cc1ccncc1)C1C=CS(=O)(=O)C1 (single isomer, unassigned) [I-133]
10 to 50 µM	O=C(Cc1ccc(C(F)(F)F)c(Cl)c1)N(Cc1ccncc1)C1C=CS(=O)(=O)C1 (stereo not shown) [I-299, 2-[3-chloro-4-(trifluoromethyl)phenyl]-N-(1,1-dioxo-2,3-dihydro-1lambda6-thiophen-3-yl)-N-[(pyridin-4-yl)methyl]acetamide]
